Test results reported in US10364238B2, “N-((het) arylmethyl)-heteroaryl-carboxamides compounds as plasma kallikrein inhibitors” (KALVISTA PHARMACEUTICALS LIMITED, priority 2014, dated 2019).

Experiments:
[1] = in vivo; cited from earlier work
diabetic rats = details: cited from earlier work
[2] = Pharmacokinetics following a single oral dose in rats; assay type: in vivo; details: rat, nominal 10 mg/kg, male Sprague-Dawley rats, plasma
Experimental: Pharmacokinetic studies of the compounds in Table 15 were performed to assess the pharmacokinetics following a single oral dose in male Sprague-Dawley rats. Two rats were given a single po dose of 5 mL/kg of a nominal 2 mg/mL (10 mg/kg) composition of test compound in vehicle. Following dosing, blood samples were collected over a period of 24 hours. Sample times were 5, 15 and 30 minutes then 1, 2, 4, 6, 8 and 12 hours. Following collection, blood samples were centrifuged and the plasma fraction analysed for concentration of test compound by LCMS.

Human plasma kallikrein = Human plasma kallikrein (Homo sapiens (Human), UniProt P03952); assay: Determination of the IC50 for plasma kallikrein; assay type: biochemical; details: 25° C., fluorogenic substrate H-DPro-Phe-Arg-AFC; read-out: IC50 (human PKaI)
Chain of Human plasma kallikrein (P03952 391-638): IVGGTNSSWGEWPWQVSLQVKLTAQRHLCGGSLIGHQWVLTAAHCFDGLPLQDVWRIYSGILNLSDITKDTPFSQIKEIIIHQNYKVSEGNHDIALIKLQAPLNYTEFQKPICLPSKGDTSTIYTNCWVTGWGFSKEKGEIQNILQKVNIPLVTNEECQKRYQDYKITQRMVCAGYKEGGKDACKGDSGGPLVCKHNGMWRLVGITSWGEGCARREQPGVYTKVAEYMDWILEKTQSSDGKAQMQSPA
Chain of Human plasma kallikrein (P03952 20-390 partner): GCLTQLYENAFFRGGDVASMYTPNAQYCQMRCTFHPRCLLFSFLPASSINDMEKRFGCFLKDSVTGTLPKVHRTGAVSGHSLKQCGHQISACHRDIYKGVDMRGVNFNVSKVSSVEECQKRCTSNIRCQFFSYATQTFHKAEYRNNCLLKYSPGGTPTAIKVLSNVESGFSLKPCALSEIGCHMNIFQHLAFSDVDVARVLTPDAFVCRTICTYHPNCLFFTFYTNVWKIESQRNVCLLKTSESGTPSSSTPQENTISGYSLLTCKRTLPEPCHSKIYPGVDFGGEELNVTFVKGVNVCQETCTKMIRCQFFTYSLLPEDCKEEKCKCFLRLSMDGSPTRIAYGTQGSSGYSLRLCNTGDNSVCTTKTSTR
Experimental: Determination of the IC50 for Plasma Kallikrein
(§1) Human plasma kallikrein (Protogen) was incubated at 25° C. with the fluorogenic substrate H-DPro-Phe-Arg-AFC and various concentrations of the test compound. Residual enzyme activity (initial rate of reaction) was determined by measuring the change in […] at 410 nm and the IC50 value for the test compound was determined.

Human FXIa = Human FXIa (Homo sapiens (Human), UniProt P03951); assay: Determination of the % inhibition for FXIa; assay type: biochemical; details: 40 μM test compound, 25° C., substrate Z-Gly-Pro-Arg-AFC
Chain of Human FXIa (P03951 388-625): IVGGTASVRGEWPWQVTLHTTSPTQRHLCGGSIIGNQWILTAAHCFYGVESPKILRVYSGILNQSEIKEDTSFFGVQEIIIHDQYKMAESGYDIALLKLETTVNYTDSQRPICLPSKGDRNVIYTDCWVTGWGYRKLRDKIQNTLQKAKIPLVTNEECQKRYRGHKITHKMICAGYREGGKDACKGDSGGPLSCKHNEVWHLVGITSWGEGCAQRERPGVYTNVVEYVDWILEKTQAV
Chain of Human FXIa (P03951 19-387 partner): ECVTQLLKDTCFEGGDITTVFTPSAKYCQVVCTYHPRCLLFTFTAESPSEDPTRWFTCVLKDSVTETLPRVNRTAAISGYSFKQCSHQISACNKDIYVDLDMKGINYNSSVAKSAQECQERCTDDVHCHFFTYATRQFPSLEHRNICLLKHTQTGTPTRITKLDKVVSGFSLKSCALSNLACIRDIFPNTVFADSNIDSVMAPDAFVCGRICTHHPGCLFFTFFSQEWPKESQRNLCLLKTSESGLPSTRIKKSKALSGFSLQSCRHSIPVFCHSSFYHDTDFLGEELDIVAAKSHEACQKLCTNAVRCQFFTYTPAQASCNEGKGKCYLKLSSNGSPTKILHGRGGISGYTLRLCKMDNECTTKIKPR
Experimental: Determination of the % Inhibition for FXIa
Human FXIa (Enzyme Research Laboratories) was incubated at 25° C. with the fluorogenic substrate Z-Gly-Pro-Arg-AFC and 40 μM of the test compound. Residual enzyme activity (initial rate of reaction) was determined by measuring the change in […].

Human KLK1 = Human KLK1 (Homo sapiens (Human), UniProt P06870); assay: Determination of the IC50 for KLK1; assay type: biochemical; details: 25° C., fluorogenic substrate H-DVal-Leu-Arg-AFC
Chain of Human KLK1 (P06870 25-262): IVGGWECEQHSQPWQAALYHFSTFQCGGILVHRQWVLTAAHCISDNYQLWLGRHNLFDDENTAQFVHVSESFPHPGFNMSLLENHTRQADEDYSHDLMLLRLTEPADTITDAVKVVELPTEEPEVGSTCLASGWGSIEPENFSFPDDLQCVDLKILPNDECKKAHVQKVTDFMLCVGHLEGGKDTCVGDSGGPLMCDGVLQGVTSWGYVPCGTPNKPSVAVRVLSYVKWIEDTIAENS
Experimental: Determination of the IC50 for KLK1
as §1, with “KLK1 (Callbiochem)” for “plasma kallikrein (Protogen)”, “H-DVal-Leu-Arg-AFC” for “H-DPro-Phe-Arg-AFC”

Structure (SMILES): N=C(N)c1ccc(CNC(=O)c2cnn(Cc3ccccc3)c2)cc1 [ASP-440]
- oral availability [1]: poor oral availability
- effect on retinal vascular permeability and retinal blood flow abnormalities (diabetic rats): ameliorated both retinal vascular permeability and retinal blood flow abnormalities

Structure (SMILES): COCc1nn(Cc2ccc(Cn3ccccc3=O)cc2)cc1C(=O)NCc1c(F)ccc(OC)c1F [Example 66, N-[(2,6-difluoro-3-methoxyphenyl)methyl]-3-(methoxymethyl)-1-({4-[(2-oxopyridin-1-yl)methyl]phenyl}methyl)pyrazole-4-carboxamide]
- Cmax [2]: 2890 ng/mL
- Tmax [2]: 1 h
- IC50 (Human plasma kallikrein): 4.6 nM
- inhibition at 40 µM (Human FXIa): 4%
- IC50 (Human KLK1): > 10 µM
